Test results from patent publication US8058468B2, “Carbamate antibiotics” (Nederlandse Organisatie Voor …, priority 2005, dated 2011).
In brackets after ≈: the same amount, converted by molar mass. Read-outs that look alike come from different tables or passages of the source.

How the values were obtained:
S. aureus MW2 = experiment: MIC test (CLSI M7-A6), single strain; type: cell-based; settings: Staphylococcus aureus
Experimental: (§1) MIC test were performed according to standard methodology: M7-A6-“Methods for Dilution Antimicrobial Susceptibility Tests for Bacteria That Grow Aerobically”; Approved Standard, Sixth Edition Clinical and Laboratory Standards Institute 2005 (CLSI/formerly NCCLS).
(§2) Table 2 lists the results of 3 different compounds according to Formula (I) on single strains of S. aureus as MIC values expressed in micrograms per milliliter.

S. aureus N315 = experiment: MIC test (CLSI M7-A6), single strain; type: cell-based; settings: Staphylococcus aureus
Experimental: as §1, §2

S. aureus ATCC 29213 = experiment: MIC test (CLSI M7-A6), single strain; type: cell-based; settings: Staphylococcus aureus, ATCC29213; single strain ATCC 29213
Experimental: as §1, §2

[1] = test system: multiple strains of S. aureus; experiment: MIC test on multiple strains of S. aureus; type: cell-based, Staphylococcus aureus; settings: for MIC 50 / MIC 90: 59-60 tested S. aureus strains; for Range MIC (lowest-highest): highest: highest value over 59-60 tested S. aureus strains; for Range MIC (lowest-highest): lowest: lowest value over 59-60 tested S. aureus strains
Experimental: MIC test were performed according to standard methodology: M7-A6-“Methods for Dilution Antimicrobial Susceptibility Tests for Bacteria That Grow Aerobically”; Approved Standard, Sixth Edition Clinical and Laboratory Standards Institute 2005 (CLSI/formerly NCCLS). The MIC values are expressed as a range between the lowest value and the highest value found in these experiments. Both the average MIC50 and MIC90 are indicated in bold.

S. aureus ATCC6538 = experiment: Further MIC tests, performed as in Example 1; type: cell-based; settings: Staphylococcus aureus
Experimental: as §1
Further MIC tests, performed as in Example 1, were performed on several of the above synthesized compounds.

MRSA 2141 = experiment: Local thigh muscle infection with MRSA 2141 in the mouse, CFU outgrowth; type: in vivo; settings: for Log reduction of MRSA 2141 CFU in thigh muscle: vs vehicle; for Reduction of bacterial outgrowth against the untreated group: P≦0.01
Experimental: (§3) The purpose of this study was to investigate the antibiotic efficacy of different doses of compound BAS00674552 against a local infection with MRSA 2141 in the mouse. Thirty mice were treated intravenously with 0.5, 5.0 or 50 mg/kg body weight, respectively. The observation period was three days. Outgrowth of the infection was used to establish drug efficacy.
The test substances were administered as a solution in dimethylsulfoxide (DMSO). The test substance was administered as 20 μl injections per mouse at all dose levels. Vancomycin was used as positive control and injected intravenously as a 10 mg/ml solution in DMSO (20 μl per mouse).
The study was performed according to Lab-Sop-Amp-Anim-002 and Lab-Sop-Amp-Bac-003. In short, mice were injected with 11E05 MRSA bacteria, strain 2141 in the right thigh muscle, followed one day later by an i.v. injection of the test compound, vancomycin or vehicle in the tail vein. 24 hours later mice were sacrificed, blood was collected by heart puncture and the right thigh muscle was removed. Plasma was prepared from blood samples and stored at −80°±10° C. for possible future analysis. Thigh muscles were weighted and homogenized using an Ultra-Turrax® and dilutions of the homogenate were prepared in saline. Limiting dilutions were plated onto agar plates and two days later the number of MRSA 2141 CFU were determined for each individual mouse as an indication of bactericidal activity of the compound. Additionally, tests were performed to determine if the bacteria used are still oxacillin resistant Staphylococcus aureus. This was done before injection and on pooled thigh muscle isolates per group. For this purpose Staphaurex® (Remel Europe Ltd., Crossways, UK) and ORSAB®+supplements (Oxoid Ltd., Basingstoke, UK) were used. In vivo antibiotic activity is determined by a CFU reduction of >90% (1 log reduction) in comparison to the negative control (vehicle only).
The study was comprised five groups of 10 females each.

[2] = Observation scoring for adverse side effects in infected treated mice; type: in vivo, mouse; settings: all animals
Experimental: as §3

[3] = duplo (duplicate determination), read-out: MIC-value S. aureus ATCC6538 duplo
[4] = first determination, read-out: MIC-value S. aureus ATCC6538

Compound	MIC (S. aureus MW2) [µg/mL]	MIC (S. aureus N315) [µg/mL]	MIC (S. aureus ATCC 29213) [µg/mL]	MIC 50 [1] [microgram/milliliter]	MIC 90 [1] [microgram/milliliter]	Range MIC (lowest-highest): highest [1] [microgram/milliliter]	Range MIC (lowest-highest): lowest [1] [microgram/milliliter]	MIC (S. aureus ATCC6538; [3]) [µg/mL]	MIC (S. aureus ATCC6538; [4]) [µg/mL]	further results
CCOC(=O)NCCOC(=O)Nc1ccc(Cl)c(Cl)c1 [BAS 00212008, (3,4-dichloro-phenyl)-carbamic acid 2-ethoxycarbonylamino-ethyl ester]	16 (≈ 49.8 µM)	8 (≈ 24.9 µM)	16 (≈ 49.8 µM)	>32	>32	>32	>32			
CCC(COC(=O)Nc1ccc(Cl)c(Cl)c1)NC(=O)OC(C)C (centres unmarked) [BAS 00674544, (3,4-dichloro-phenyl)-carbamic acid 2-isopropoxycarbonylamino-butyl ester]	8 (≈ 22 µM)	8 (≈ 22 µM)	8 (≈ 22 µM)	16	32	>32	8			
CC(C)COC(=O)NCC(C)OC(=O)Nc1ccc(Cl)c(Cl)c1 (centres unmarked) [BAS 00674552, (3,4-dichloro-phenyl)-carbamic acid 2-isobutoxycarbonylamino-1-methyl-ethyl ester]	4 (≈ 11 µM)	4 (≈ 11 µM)	8 (≈ 22 µM)	8	16	>32	4	6.25 (≈ 17.2 µM)	25 (≈ 68.8 µM)	Log reduction of MRSA 2141 CFU in thigh muscle (MRSA 2141; 5 mg/kg single i.v. dose, 24 h after dosing): Approximately 2 Log; Reduction of bacterial outgrowth against the untreated group (MRSA 2141; 5 mg/kg): significant reduction of bacterial outgrowth; Log reduction of MRSA 2141 CFU in thigh muscle (MRSA 2141; 50 mg/kg single i.v. dose, 24 h after dosing): Approximately 2 Log; Reduction of bacterial outgrowth against the untreated group (MRSA 2141; 50 mg/kg): significant reduction of bacterial outgrowth; Efficacy against local MRSA 2141 infection (statistical analysis) (MRSA 2141; all doses, P≦0.001): effective; Score on observation scoring sheets (DEC guidelines) [2]: < 8; Adverse side effects ([2]; single i.v. dose 0.5-50 mg/kg): no signs of adverse side effects were observed
Cc1ccc(NC(=O)OC(C)CNC(=O)OCC(C)C)cc1 (centres unmarked) [TAC 1_005, p-tolyl-carbamic acid 2-isobutoxycarbonylamino-1-methyl-ethyl ester]								50 (≈ 162 µM)	100 (≈ 324 µM)	
CC(C)COC(=O)NCC(C)OC(=O)Nc1ccc(C(F)(F)F)cc1 (centres unmarked) [TAC 1_007, (4-trifluoromethyl-phenyl)-carbamic acid 2-isobutoxycarbonylamino-1-methyl-ethyl ester]								25 (≈ 69 µM)	12.5 (≈ 34.5 µM)	
NC(=O)OCCOC(=O)Nc1ccc(Cl)c(Cl)c1 [TAC 1_009, (3,4-dichloro-phenyl)-carbamic acid 2-carbamoyloxy-ethyl ester]								50 (≈ 171 µM)	100 (≈ 341 µM)	
CNC(=O)OCCOC(=O)Nc1ccc(Cl)c(Cl)c1 [TAC 1_010, (3,4-dichloro-phenyl)-carbamic acid 2-methylcarbamoyloxy-ethyl ester]								50 (≈ 163 µM)	100 (≈ 326 µM)	
CCNC(=O)OCCOC(=O)Nc1ccc(Cl)c(Cl)c1 [TAC 1_011, (3,4-dichloro-phenyl)-carbamic acid 2-ethylcarbamoyloxy-ethyl ester]								100 (≈ 311 µM)	100 (≈ 311 µM)	
CN[C@H](CC(C)C)C(=O)N[C@H]1C(=O)N[C@@H](CC(N)=O)C(=O)N[C@H]2C(=O)N[C@H]3C(=O)N[C@H](C(=O)N[C@H](C(=O)O)c4cc(O)cc(O)c4-c4cc3ccc4O)[C@H](O)c3ccc(c(Cl)c3)Oc3cc2cc(c3O[C@@H]2O[C@H](CO)[C@@H](O)[C@H](O)[C@H]2O[C@H]2C[C@](C)(N)[C@H](O)[C@H](C)O2)Oc2ccc(cc2Cl)[C@H]1O [vancomycin, Vancomycin, reference compound]										Log reduction of MRSA 2141 CFU in thigh muscle (MRSA 2141; positive control, 10 mg/ml i.v., 20 μl per mouse (10 mg/kg)): Over 1 Log
